The values below come from PubChem BioAssay (NCI).

“And” between values parts separate entries of the source, which are not always exact repeats. Identical values can stand only once.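 Protocol summary: plate cells (96-well), add compound at 5 concentrations, incubate 48 h, interpolate endpoints linearly. GI50 marks 50% less growth. TGI: total growth inhibition.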

Test systems include COLO 205 colon; HCT-116 colon; HCT-15 colon; K-562 leukemia; M14 melanoma; MDA-MB-435; NCI-H460 lung; OVCAR-3 ovarian; SW-620 colon; NCI-H226 lung.
Assay in all cases: growth of human tumour cells (NCI), 48 h

On to `O=[N+]([O-])c1cnc(Sc2ccncn2)c([N+](=O)[O-])c1`, for which the GI50 with COLO 205 colon is 1.98 µM; in the assay with HCT-116 colon it was 1.84 µM; with HCT-15 colon, 2.78 µM; in the assay on K-562 leukemia, 2.85 µM; with M14 melanoma, 5.81 µM; in the assay with MDA-MB-435, 4.91 µM. For the same compound, the GI50 with NCI-H460 lung is 23 µM; with OVCAR-3 ovarian it was 1.76 µM; in the assay with SW-620 colon, 2.19 µM. For the same compound, the TGI was found to be 3.58 µM in the assay on COLO 205 colon; 3.59 µM in the assay with HCT-116 colon; 11.2 µM in the assay on HCT-15 colon; 29.9 µM in the assay on K-562 leukemia; 19 µM in the assay on M14 melanoma; 18.1 µM in the assay on MDA-MB-435. Besides, the TGI turned out to be 49.4 µM in the assay with NCI-H460 lung, 3.17 µM in the assay on OVCAR-3 ovarian and 4.45 µM with SW-620 colon.
In the case of `O=C(Nc1ccc(-c2nc3cc4ccccc4cc3[nH]2)cc1)c1cccc(Br)c1`, the GI50 in the assay on COLO 205 colon was 8.87 µM; in the assay with HCT-116 colon, 3.89 µM; with HCT-15 colon it was 4.12 µM; with M14 melanoma, 7.59 µM; in the assay on MDA-MB-435, 4.72 µM; in the assay on NCI-H226 lung it was 21.4 µM. Also, the GI50 with NCI-H460 lung is 3.36 µM; with OVCAR-3 ovarian, 3.64 µM; in the assay on SW-620 colon, 3.09 µM. The TGI in the assay with COLO 205 colon is 40 µM; in the assay on HCT-116 colon, > 100 µM; with HCT-15 colon it was 42.1 µM; in the assay on M14 melanoma, 24.8 µM; in the assay with MDA-MB-435, 20.4 µM; with NCI-H226 lung, 50.2 µM. The TGI in the assay with NCI-H460 lung turned out to be 13 µM; with OVCAR-3 ovarian it was 10.3 µM; in the assay with SW-620 colon, 12.8 µM.
Take `Nc1ccccc1C#CC#Cc1ccccc1N`: the GI50 in the assay on COLO 205 colon is 22.5 µM; in the assay on HCT-116 colon, 6.02 µM; in the assay with HCT-15 colon, 11.4 µM; in the assay on K-562 leukemia, 5.78 µM; with M14 melanoma, 7.34 µM; with MDA-MB-435, 4.6 µM. Besides, the GI50 in the assay with NCI-H460 lung is 11.8 µM; in the assay on OVCAR-3 ovarian, 2.85 µM; in the assay with SW-620 colon, 15.7 µM. Besides, the TGI is 75.7 µM in the assay on COLO 205 colon; 24.8 µM in the assay on HCT-116 colon; 25.5 µM in the assay on HCT-15 colon; > 100 µM with K-562 leukemia; 65.8 µM with M14 melanoma; 31.3 µM in the assay with MDA-MB-435. Also, the TGI is 28.4 µM in the assay on NCI-H460 lung, 36.3 µM with OVCAR-3 ovarian and 35.3 µM in the assay with SW-620 colon.
`Cc1ccc(C)c(NC(=O)C(=O)C2C(=O)C3=C(CC2(C)C)Nc2ccccc2S3)c1` (stereo unspecified): the TGI in the assay on COLO 205 colon, with HCT-116 colon, with HCT-15 colon, in the assay with M14 melanoma, in the assay with MDA-MB-435 and with NCI-H226 lung was > 100 µM each time. Besides, the TGI with NCI-H460 lung, in the assay with OVCAR-3 ovarian and with SW-620 colon was > 100 µM throughout.
Regarding `CN(C)/[N+]([O-])=N/Oc1cc(Nc2cccc(C(=O)O)c2)c([N+](=O)[O-])cc1[N+](=O)[O-]`, the GI50 in the assay with COLO 205 colon is > 100 µM; in the assay with HCT-116 colon, 34.5 µM; in the assay on HCT-15 colon it was > 100 µM; with K-562 leukemia it was 61.6 µM; in the assay with MDA-MB-435, > 100 µM; with NCI-H226 lung it was > 100 µM. Also, the GI50 in the assay on NCI-H460 lung was > 100 µM; in the assay with OVCAR-3 ovarian it was 5.45 µM; in the assay with SW-620 colon it was > 100 µM. Also, the TGI in the assay on COLO 205 colon, in the assay with HCT-116 colon, in the assay on HCT-15 colon, in the assay with K-562 leukemia, in the assay on MDA-MB-435 and in the assay on NCI-H226 lung was > 100 µM each time. Besides, the figures for the TGI in the assay on NCI-H460 lung, in the assay with OVCAR-3 ovarian and with SW-620 colon were > 100 µM, 22.7 µM and > 100 µM, respectively.
Consider `CCC/C(=N\NC(=S)N1CCN(c2ccccn2)CC1)c1ccccn1`, for which the TGI is > 3.55 µM with HCT-116 colon; 1.55 µM and 1.75 µM in the assay on HCT-15 colon; 0.11 µM in the assay on K-562 leukemia; 0.318 µM in the assay on M14 melanoma; 1.96 µM with MDA-MB-435; 3.67 µM and 1.75 µM in the assay with NCI-H226 lung. For the same compound, the TGI with NCI-H460 lung is > 4.19 µM; in the assay with OVCAR-3 ovarian, 0.615 µM and 1.14 µM; in the assay on SW-620 colon, 1.36 µM and 1.21 µM. Besides, the figures for the GI50 with M14 melanoma, in the assay on NCI-H226 lung and in the assay with SW-620 colon were 0.122 µM, 0.136 µM and 0.0117 µM, respectively.
Turning to `CCCCCCCCCCCCN1C(C)=CS/C1=C\C=C\c1scc(C)[n+]1CCCCCCCCCCCC`, the GI50 with COLO 205 colon was 1.26 µM; in the assay with HCT-15 colon, 2.32 µM; in the assay on M14 melanoma, 1.34 µM; in the assay with MDA-MB-435, 1.21 µM; with NCI-H226 lung, 2.34 µM; in the assay on NCI-H460 lung it was 1.43 µM. For the same compound, the GI50 was 1.24 µM in the assay with OVCAR-3 ovarian and 1.71 µM in the assay with SW-620 colon. For the same compound, the TGI in the assay with COLO 205 colon was 4.13 µM; in the assay on HCT-15 colon, 21.6 µM; with M14 melanoma, 4.61 µM; in the assay on MDA-MB-435, 3.68 µM; with NCI-H226 lung it was > 100 µM; with NCI-H460 lung it was 3.51 µM. Also, the TGI with OVCAR-3 ovarian turned out to be 3.69 µM; with SW-620 colon, 7.19 µM.
Take `Oc1ccc2ccccc2c1C=NCCCN=Cc1c(O)ccc2ccccc12`: the GI50 with COLO 205 colon was 15.9 µM; in the assay on HCT-116 colon, 10 µM; in the assay on HCT-15 colon, 5.13 µM; with M14 melanoma, 7.94 µM; in the assay with MDA-MB-435, 10.8 µM; in the assay on NCI-H226 lung it was 0.829 µM. The values for the GI50 in the assay with NCI-H460 lung, with OVCAR-3 ovarian and in the assay on SW-620 colon were 9.35 µM, 3.31 µM and 12.1 µM, respectively. In addition, the TGI with COLO 205 colon worked out at 31.1 µM; in the assay with HCT-116 colon it was 31.4 µM; in the assay on HCT-15 colon, 28.5 µM; in the assay with M14 melanoma it was 23.1 µM; with MDA-MB-435 it was 71.2 µM; in the assay on NCI-H226 lung it was 12.9 µM. The TGI with NCI-H460 lung is > 100 µM; with OVCAR-3 ovarian, 14.8 µM; in the assay with SW-620 colon, 61.8 µM.
In the case of `C/C(CN1C(=O)c2ccccc2C1=O)=N\NS(=O)(=O)c1cccc([N+](=O)[O-])c1`, the TGI in the assay on COLO 205 colon, in the assay with HCT-116 colon, in the assay with HCT-15 colon, with K-562 leukemia, in the assay with M14 melanoma and with NCI-H226 lung was > 100 µM each time. In addition, the TGI with NCI-H460 lung, with OVCAR-3 ovarian and with SW-620 colon was > 100 µM throughout.
